According to publication PMC3982047 (Nature, 2014):
Values belong to the compound of their own block, whether it stands above or below them. Peptide text beside a SMILES is read from it.

Experiments:
[1] = target: PepTSo (Shewanella oneidensis, UniProt Q8EKT7); test: microscale thermophoresis; format: binding
[2] = target: T1, AtNRT1.1 (Arabidopsis thaliana, UniProt Q05085); test: microscale thermophoresis; format: binding
T1 sequence (Q05085 1-590): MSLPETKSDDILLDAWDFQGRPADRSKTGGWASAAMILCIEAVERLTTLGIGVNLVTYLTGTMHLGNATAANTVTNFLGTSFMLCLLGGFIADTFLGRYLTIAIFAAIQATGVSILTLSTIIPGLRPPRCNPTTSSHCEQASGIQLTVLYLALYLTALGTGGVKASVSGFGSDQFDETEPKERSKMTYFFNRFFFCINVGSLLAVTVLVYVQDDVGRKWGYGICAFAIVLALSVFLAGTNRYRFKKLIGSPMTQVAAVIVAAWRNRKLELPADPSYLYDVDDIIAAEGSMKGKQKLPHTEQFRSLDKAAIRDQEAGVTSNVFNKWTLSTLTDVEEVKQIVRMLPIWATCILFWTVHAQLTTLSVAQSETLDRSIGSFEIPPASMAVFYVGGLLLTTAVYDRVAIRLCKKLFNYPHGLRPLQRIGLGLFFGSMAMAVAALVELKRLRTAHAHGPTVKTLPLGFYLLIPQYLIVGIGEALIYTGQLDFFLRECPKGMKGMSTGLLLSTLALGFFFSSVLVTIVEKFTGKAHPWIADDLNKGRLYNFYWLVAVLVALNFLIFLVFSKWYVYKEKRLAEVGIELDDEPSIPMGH

[3] = target: AtNRT1.1 (Arabidopsis thaliana, UniProt Q05085); test: biochemical
[4] = target: AtNRT1.1 (Arabidopsis thaliana, UniProt Q05085, T101D); test: microscale thermophoresis; format: binding
Sequence of AtNRT1.1 (Arabidopsis thaliana, UniProt Q05085, T101D) (Q05085 whole entry T101D): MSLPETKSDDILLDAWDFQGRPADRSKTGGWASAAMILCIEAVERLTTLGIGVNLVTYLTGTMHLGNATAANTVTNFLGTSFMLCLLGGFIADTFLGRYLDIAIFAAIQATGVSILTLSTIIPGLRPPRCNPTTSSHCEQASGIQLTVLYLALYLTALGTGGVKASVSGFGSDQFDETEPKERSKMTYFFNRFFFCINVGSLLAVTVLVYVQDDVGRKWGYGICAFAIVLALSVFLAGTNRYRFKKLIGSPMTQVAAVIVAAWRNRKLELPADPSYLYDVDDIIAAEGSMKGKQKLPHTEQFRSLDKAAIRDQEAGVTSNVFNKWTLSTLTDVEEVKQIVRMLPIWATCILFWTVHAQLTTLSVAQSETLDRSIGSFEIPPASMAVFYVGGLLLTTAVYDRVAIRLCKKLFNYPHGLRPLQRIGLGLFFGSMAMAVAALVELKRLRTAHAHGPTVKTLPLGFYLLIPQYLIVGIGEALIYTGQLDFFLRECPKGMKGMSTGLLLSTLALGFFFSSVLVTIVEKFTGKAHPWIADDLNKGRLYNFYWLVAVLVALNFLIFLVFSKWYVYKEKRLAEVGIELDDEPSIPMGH

[5] = target: PepTSo, peptide transporter from Shewanella oniendensis (Shewanella oniendensis (so in the source)); test: MST

Compound: C[C@H](N)C(=O)N[C@@H](C)C(=O)O [Ala-Ala] (H-Ala-Ala-OH)
- Kd [1]: ~35 µM

Compound: [O-][Cl+2]([O-])O [chlorate]
- Kd [2]: ~5000 µM

Compound: O=[N+]([O-])O [nitrate]
- Kd [3]: 1000 ± 150 µM
- Kd [4]: 1000 ± 120 µM

- Kd [5]: 35 µM
Compound: di-peptide Ala-Ala
